From article PMC11472313, “Development of Fragment-Based Inhibitors of the Bacterial Deacetylase LpxC with Low Nanomolar Activity” (Journal of Medicinal Chemistry, 2024)
≈ marks a conversion by molar mass, not a printed value.

Experiments:
[1] = tested on: P. aeruginosa LpxC (PaLpxC); settings: cited from earlier work
[2] = tested on: E. coli D22; assay: MIC, broth microdilution; assay type: cell-based; settings: Escherichia coli, 20 h, 37 °C, LB
Procedure: (§1) Besides measuring the inhibitory activities toward E. coli LpxC C63A, the antibacterial activities of the synthesized hydroxamic acids were evaluated by determining their minimal inhibitory concentrations (MIC) in broth dilution tests as well as by performing disc diffusion assays (Table 1).
(§2) The MIC values of the compounds were determined by means of the microdilution method using 96-well plates.
(§3) The overnight suspension was diluted 1:1000 in fresh LB. 10 μL of a 2-fold dilution series of the compounds in DMSO and 90 μL of LB were dispensed to each well of a 96-well plate. Then, 100 μL of the inoculated medium was added, resulting in 5 × 10^5 cfu mL^–1, 5% DMSO, and a final concentration range of the test compounds between 64 and 0.016 μg mL^–1. The plates were incubated for 20 h at 37 °C. The MIC was defined as the lowest concentration of the compounds that prevented visible growth after incubation. Each assay was performed at least three times on separate days.

[3] = tested on: E. coli BL21(DE3); assay: MIC, broth microdilution; assay type: cell-based; settings: Escherichia coli, 20 h, 37 °C, LB
Procedure: as §1, §2, §3

[4] = molecular target: T1, E. coli LpxC C63A (Escherichia coli, UniProt P0A725, C63A); assay: fluorescence-based E. coli LpxC C63A enzyme inhibition assay; assay type: biochemical; settings: Ki E. coli LpxC C63A, from IC50 via Cheng–Prusoff
T1 construct: made in house; host or cells: E. coli BL21(DE3)
Procedure: In order to determine the inhibitory activities of the compounds of interest toward E. coli LpxC, a fluorescence-based enzyme assay was deployed, in which the formed deacetylated natural product UDP-3-O-[(R)-3-hydroxymyristoyl]glucosamine (2) is transformed into a fluorescent isoindole with o-phthaldialdehyde and 2-mercaptoethanol.[48],[49] […] The KM of E. coli LpxC C63A was determined experimentally using a mass spectrometry-based LpxC assay (Figure S8, Supporting Information, vide infra).
A fluorescence-based microplate assay for LpxC activity was performed as described by Clements et al.[48] The wells in a black, nonbinding, 96-well fluorescence microplate (Greiner Bio One, Frickenhausen) were filled with 93 μL of 26.9 μM UDP-3-O-[(R)-3-hydroxymyristoyl]-N-acetylglucosamine in assay buffer [40 mM sodium morpholinoethanesulfonic acid (pH 6.0), 80 μM dithiothreitol, 0.02% Brij 35]. In order to assay the inhibitors at final concentrations from 20 nM up to 20 μM, 2 μL of a respective dilution of the compounds in DMSO were added. The addition of 5 μL of a solution of purified LpxC (10 μg mL^–1) in assay buffer led to final concentrations of 25 μM UDP-3-O-[(R)-3-hydroxymyristoyl]-N-acetylglucosamine, 15 nM E. coli LpxC C63A, 2% DMSO, and from 20 nM up to 20 μM inhibitor. The microplate was incubated for 30 min at 37 °C in a plate shaker. Then, the biochemical reaction was stopped by adding 40 μL of 0.625 M sodium hydroxide. The reaction mixture was further incubated for 10 min and neutralized by adding 40 μL of 0.625 M acetic acid. The deacetylated product UDP-3-O-[(R)-3-hydroxymyristoyl]glucosamine was converted into a fluorescing isoindole by adding 120 μL of an o-phthaldialdehyde-2-mercaptoethanol solution, which was prepared by dissolving 10 mg of o-phthaldialdehyde in 1 mL of methanol, diluting the mixture with 24 mL of a sodium borate buffer (0.1 M), and finally adding 2.5 μL of 2-mercaptoethanol.[49] Fluorescence was measured with a TriStar^2 S LB 942 plate reader (Berthold, Bad Wildbad) at 340 nm excitation and 460 nm emission wavelengths. Each assay was performed at least three times on separate days. The IC50 values were calculated via Probit-log concentration graphs with the aid of the software Origin and were subsequently converted into Ki values using the Cheng–Prusoff equation.[75],[76]

[5] = molecular target: T2, P. aeruginosa LpxC (Pseudomonas aeruginosa, UniProt P47205); assay: LC–MS/MS-based P. aeruginosa LpxC enzyme inhibition assay; assay type: biochemical; settings: from IC50 via Cheng–Prusoff
T2 construct: made in house; host or cells: E. coli BL21(DE3)
Source text: As Pseudomonas aeruginosa is one of the so-called ESKAPE pathogens,[56] being the leading cause of nosocomial infections throughout the world, and carbapenem-resistant P. aeruginosa strains were assigned the highest priority (priority 1: critical) within the “WHO priority pathogens list for R&D of new antibiotics” (WHO 2017),[57] new antibacterial agents combating these bacteria are urgently required. Thus, our newly developed LpxC inhibitors should be tested for inhibitory activity toward P. aeruginosa LpxC, which shares 57% sequence identity with E. coli LpxC.[28] Therefore, a liquid chromatography with tandem mass spectrometry (LC–MS/MS)-based P. aeruginosa LpxC assay was established. […] After incubation and subsequent termination of the enzymatic reaction, the samples were subjected to LC–MS/MS analysis. Following the chromatographic separation of substrate 1 and deacetylated product 2, the eluted compounds were ionized and subjected to fragmentation. Three multiple reaction monitoring (MRM) transitions were detected per compound [precursor ions: m/z (substrate 1) 832; m/z (deacetylated product 2) 790; product ions: m/z (product 1) 385, collision energy = −60 V; m/z (product 2) 159, collision energy = −80 V; m/z (product 3) 79, collision energy = −140 V]. The MRM transitions 832 → 79 of substrate 1 and 790 → 79 of product 2 were used as quantifiers; the other mass transitions were used as qualifiers.
The protocol of the LC–MS/MS-based P. aeruginosa LpxC assay was based on the E. coli LpxC C63A enzyme assay. Compared to the fluorescence-based enzyme assay, the substrate was diluted 1:10 and the inhibitors were diluted 1:4.
The wells in a black, nonbinding, 96-well fluorescence microplate (Greiner Bio One, Frickenhausen) were filled with 93 μL of 2.69 μM UDP-3-O-[(R)-3-hydroxymyristoyl]-N-acetylglucosamine in assay buffer [50 mM KH2PO4/K2HPO4 (pH = 7.5), 80 μM dithiothreitol, 0.02% Brij 35]. In order to assay the inhibitors at final concentrations from 5 nM up to 5 μM, 2 μL of a respective dilution of the compounds in DMSO were added. The addition of 5 μL of a solution of purified P. aeruginosa LpxC (5 μg mL^–1) in assay buffer led to final concentrations of 2.5 μM UDP-3-O-[(R)-3-hydroxymyristoyl]-N-acetylglucosamine, 7.5 nM P. aeruginosa LpxC, 2% DMSO, and from 5 nM up to 5 μM inhibitor. The microplate was incubated for 30 min at 37 °C in a plate shaker. Then, the biochemical reaction was stopped by adding 40 μL of 0.625 M hydrochloric acid. The reaction mixtures were further incubated for 10 min, sealed, and stored at −80 °C until analysis.
LC–MS/MS-Analysis. The reaction mixtures were separated by ultrahigh performance liquid-chromatography (1290 II Infinity UHPLC, Agilent Technologies), and the eluted compounds were analyzed by mass spectrometry using electrospray ionization in negative ion mode with a triple quadrupole linear ion trap mass spectrometer (QTRAP 5500, AB Sciex LLC).
To analyze the eluted compounds by mass spectrometry, a MRM method was applied. The specific parameters of this method are given in Table S2 (Supporting Information). After detection and selection of the precursor ions (1: m/z 832; 2: m/z 790), both analytes were fragmented, leading to three identical product ions [m/z (product 1) 385, collision energy = −60 V; m/z (product 2) 159, collision energy = −80 V; m/z (product 3) 79, collision energy = −140 V]. The mass transitions 832 → 79 (substrate 1) and 790 → 79 (product 2) were used as quantifiers; the other mass transitions were used as qualifiers. The ratio between substrate 1 and product 2 was quantified by comparing the peak areas of the quantifiers. The percentual inhibition caused by each inhibitor concentration was determined with respect to the amount of the product formed in the noninhibited reaction after 30 min.
Each assay was performed at least two times on separate days. […]

[6] = tested on: E. coli D22; assay: disc diffusion assay; assay type: cell-based; settings: 0.15 μmol per 6 mm disc
Procedure: as §1
(§4) The disc diffusion assays against E. coli BL21(DE3) and the defective strain E. coli D22 were performed as follows: liquid cultures of the bacteria were grown overnight in lysogeny broth (LB)[73] at 37 °C and 200 rpm. 150 μL of an overnight cell suspension was spread evenly onto LB agar plates. 0.15 μmol of each compound (dissolved in 10 or 15 μL DMSO) were applied onto circular filter paper (Ø = 6 mm, Cytiva). Pure DMSO, serving as a negative control, and CHIR-090, serving as a positive control, were also spotted. The agar plates were incubated overnight at 37 °C, and the diameter of the zone of growth inhibition was measured for each compound. Each assay was performed at least three times on separate days.

[7] = tested on: E. coli BL21(DE3); assay: disc diffusion assay; assay type: cell-based; settings: 0.15 μmol per 6 mm disc
Procedure: as §1, §4

[8] = tested on: K. pneumoniae ATCC 700603; assay: disc diffusion assay; assay type: cell-based, Klebsiella pneumoniae; settings: 0.15 μmol per 6 mm disc
Procedure: (§5) In the performed disc diffusion assays, indole derivatives (S)-13h, (S)-13i, and (S)-13j caused promising halos of growth inhibition.
(§6) The disc diffusion assays against E. coli TOP10 (Thermo Fisher, Waltham, USA), E. coli ATCC 35218, K. pneumoniae ATCC 700603, and P. aeruginosa ATCC 27853 were performed as follows: the bacteria were grown overnight on a Columbia blood agar plate (Oxoid, Basingstoke, UK), and one colony was suspended in sterile saline to yield a suspension of 0.5 McFarland standard. Using a sterile swab, the suspension was spread evenly onto Mueller–Hinton agar (Oxoid, Basingstoke, UK). 0.15 μmol of each compound (dissolved in 10 μL DMSO) was applied onto circular 6 mm diameter filter paper disks, which were then placed on the agar. After incubating the agar plates for 20 h at 37 °C, the diameter of the zone of growth inhibition was measured for each compound.

[9] = tested on: E. coli ATCC 35218; assay: disc diffusion assay; assay type: cell-based; settings: 0.15 μmol per 6 mm disc
Procedure: as §5, §6

[10] = tested on: E. coli TOP10; assay: disc diffusion assay; assay type: cell-based; settings: 0.15 μmol per 6 mm disc
Procedure: as §5, §6

[11] = tested on: P. aeruginosa ATCC 27853; assay: disc diffusion assay; assay type: cell-based; settings: 0.15 μmol per 6 mm disc
Procedure: as §5, §6

[12] = molecular target: T3, LasB (Pseudomonas aeruginosa, UniProt Q02RJ6); assay: FRET-based LasB in vitro inhibition assay; assay type: biochemical, P. aeruginosa PA14
T3 construct: The elastase LasB of P. aeruginosa is a secreted metalloprotease; endogenous in cells; host or cells: P. aeruginosa PA14 culture supernatant
Procedure: Purification of LasB from P. aeruginosa PA14 supernatant and the subsequent performance of the FRET-based in vitro inhibition assay was performed as described previously.[66] The TACE (ADAM-17) inhibitor screening kit was purchased from Sigma-Aldrich (Saint Louis, MO). MMPs 1–3 along with the SensoLyte 520 Generic MMP Activity Kit Fluorimetric were purchased from AnaSpec (Fremont, CA, USA). The assays were performed according to the guidelines of the respective manufacturer. Fluorescence signals were measured using a CLARIOstar plate reader (BMG Labtech, Ortenberg, Germany).

[13] = tested on: LpxC–9 complex; assay: NMR-ILOE (interligand NOESY) of fragment hits with LpxC and 9; settings: fragment hits binding the LpxC–9 complex by STD and WaterLogsy; 6 μM LpxC
Procedure: In order to find fragments specifically addressing the UDP-binding pocket, which can be linked to the LpxC inhibitors, a fragment screen was performed against LpxC bound to 9. First, 650 fragments in cocktails of five were tested for binding to the LpxC–9 complex using STD-NMR and WaterLogsy experiments. Then, fragment hits identified as potential binders were tested one by one against the LpxC–9 complex by STD-NMR and WaterLogsy experiments performed under identical experimental conditions. A total of 97 fragment hits were identified as binders, leading to a hit rate of 15%.
Then, NMR-ILOE experiments were performed with selected fragment hits in the presence of LpxC and the unsubstituted hydroxamic acid 9. This allowed the identification of fragments that bind in the enzyme’s UDP-binding pocket near the methylene group in the α-position of the inhibitor’s hydroxamate moiety. Weak interligand NOESY peaks were observed between inhibitor 9 and nine fragments. By contrast, no interligand NOESY peaks were observed between compound 9 and the other ten fragments. […] Unexpectedly, we also observed interligand NOESY between the fragment protons and protons of the morpholino moiety.
Standard 1D and STD NMR spectra were acquired at 20 °C with a Bruker 600 MHz NMR spectrometer equipped with a 5 mm cryoprobe. Parameters for the STD experiments (saturation frequency and saturation time) were identical for all samples. […] STD saturation time was 2 s. WaterLOGSY mixing time was 1.5 s. Two NOESY experiments were recorded with mixing times of 0.6 and 0.3 s. STD and WaterLOGSY spectra were recorded with the same NMR tubes containing 3 μM LpxC, compound 9 at 500 μM, and fragments at 500 μM. For NOESY experiments, NMR tubes contained 6 μM LpxC.
Temperature was set to 293 K for all NMR experiments.

T3 sequence (Q02RJ6 198-498): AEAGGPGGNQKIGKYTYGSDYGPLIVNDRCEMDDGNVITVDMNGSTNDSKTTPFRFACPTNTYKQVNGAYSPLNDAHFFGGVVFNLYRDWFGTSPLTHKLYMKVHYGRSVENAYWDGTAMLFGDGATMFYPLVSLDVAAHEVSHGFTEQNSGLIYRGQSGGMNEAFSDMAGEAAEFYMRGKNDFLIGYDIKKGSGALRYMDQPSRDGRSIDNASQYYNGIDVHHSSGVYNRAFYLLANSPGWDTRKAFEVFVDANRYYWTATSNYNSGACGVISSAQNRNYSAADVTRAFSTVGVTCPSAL
T1 sequence (P0A725 whole entry C63A): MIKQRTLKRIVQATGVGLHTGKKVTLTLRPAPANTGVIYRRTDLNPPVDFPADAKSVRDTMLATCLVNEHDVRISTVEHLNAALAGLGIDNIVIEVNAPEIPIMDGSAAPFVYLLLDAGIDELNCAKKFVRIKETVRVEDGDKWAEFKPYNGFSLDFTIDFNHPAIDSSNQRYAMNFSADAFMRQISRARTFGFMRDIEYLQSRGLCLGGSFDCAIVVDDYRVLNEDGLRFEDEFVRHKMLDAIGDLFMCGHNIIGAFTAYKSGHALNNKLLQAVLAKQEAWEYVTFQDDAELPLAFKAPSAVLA
T2 sequence (P47205 whole entry): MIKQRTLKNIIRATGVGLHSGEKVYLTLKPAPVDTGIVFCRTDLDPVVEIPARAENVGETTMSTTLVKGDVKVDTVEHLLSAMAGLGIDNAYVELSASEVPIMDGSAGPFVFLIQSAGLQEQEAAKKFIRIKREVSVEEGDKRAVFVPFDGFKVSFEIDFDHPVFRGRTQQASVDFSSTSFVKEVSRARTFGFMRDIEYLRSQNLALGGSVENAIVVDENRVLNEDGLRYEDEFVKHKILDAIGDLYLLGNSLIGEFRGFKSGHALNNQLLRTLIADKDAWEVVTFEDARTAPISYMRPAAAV

Row | Compound | MIC [2] [µg/mL] | MIC [3] [µg/mL] | Ki [4] [nM] | Inhibition zone E. coli D22 [6] [mm] | Inhibition zone E. coli BL21(DE3) [7] [mm] | Inter-Ligand NOESY peaks between the fragment and 9 [13] | also measured
1 | C[C@@](CO)(OCc1ccc(-c2ccccc2)cc1)C(=O)NO [5a] | – | – | – | – | – | – | IC50 [1]: 22 nM
2 | O=C(NC[C@@H](OCc1ccc(C#Cc2ccc(CN3CCOCC3)cc2)cc1)C(=O)NO)c1c[nH]c2ccccc12 [(R)-13h] | 4 (≈ 7.24 µM) | > 16 | 1580 ± 216 | 13.3 ± 1.0 | ≤6 | – | Ki [5]: 631 ± 198 nM
3 | O=C(NC[C@H](OCc1ccc(C#Cc2ccc(CN3CCOCC3)cc2)cc1)C(=O)NO)c1ccc(-c2ccccc2)cc1 [(S)-13b] | 0.13 (≈ 0.22 µM) | > 16 | > 2540 | 11.2 ± 2.9 | ≤6 | – | Inhibition zone K. pneumoniae ATCC 700603 [8]: <6 mm; Inhibition zone E. coli ATCC 35218 [9]: <6 mm; Inhibition zone E. coli TOP 10 [10]: <6 mm; Inhibition zone P. aeruginosa ATCC 27853 [11]: <6 mm; LasB Inhibition at 20 μM ([12]; 20 μM): little to no inhibitory activity; inhibition at 20 µM ([12]; read-out: LasB Inhibition at 20 μM): < 10%
4 | Cn1c(O)cc2ccccc21 [F13] | – | – | – | – | – | no | –
5 | c1ccc(-c2cc[nH]n2)cc1 [F14] | – | – | – | – | – | yes | –
